Experimental data reported in PMC4910395 (Bioorganic & medicinal chemistry, 2015).
Counter-ions that a name gives are not always drawn. Like-named read-outs stand apart in the source and are kept apart here.

Legend:
[1] = target: T1, NMDA receptor (NR), [^3H]ifenprodil binding site (Rattus norvegicus, UniProt P35439+Q00960); conditions: pH 7.4
[2] = target: NMDA receptor (NR), channel binding site labeled with [^3H]MK-801 (Rattus norvegicus, UniProt P35439+Q00959+Q00960); experiment: Inhibition of [^3H]MK-801 binding to rat cortical membranes; conditions: for [^3H]MK-801 Ratio IC50 (30 µM spm)/IC50 (no spm): mean ratio, spermine sensitivity; for IC50: in presence of 30 µM spermine
Sequence of NMDA receptor (NR), channel binding site labeled with [^3H]MK-801 (Q00959 23-1464, other chains not shown): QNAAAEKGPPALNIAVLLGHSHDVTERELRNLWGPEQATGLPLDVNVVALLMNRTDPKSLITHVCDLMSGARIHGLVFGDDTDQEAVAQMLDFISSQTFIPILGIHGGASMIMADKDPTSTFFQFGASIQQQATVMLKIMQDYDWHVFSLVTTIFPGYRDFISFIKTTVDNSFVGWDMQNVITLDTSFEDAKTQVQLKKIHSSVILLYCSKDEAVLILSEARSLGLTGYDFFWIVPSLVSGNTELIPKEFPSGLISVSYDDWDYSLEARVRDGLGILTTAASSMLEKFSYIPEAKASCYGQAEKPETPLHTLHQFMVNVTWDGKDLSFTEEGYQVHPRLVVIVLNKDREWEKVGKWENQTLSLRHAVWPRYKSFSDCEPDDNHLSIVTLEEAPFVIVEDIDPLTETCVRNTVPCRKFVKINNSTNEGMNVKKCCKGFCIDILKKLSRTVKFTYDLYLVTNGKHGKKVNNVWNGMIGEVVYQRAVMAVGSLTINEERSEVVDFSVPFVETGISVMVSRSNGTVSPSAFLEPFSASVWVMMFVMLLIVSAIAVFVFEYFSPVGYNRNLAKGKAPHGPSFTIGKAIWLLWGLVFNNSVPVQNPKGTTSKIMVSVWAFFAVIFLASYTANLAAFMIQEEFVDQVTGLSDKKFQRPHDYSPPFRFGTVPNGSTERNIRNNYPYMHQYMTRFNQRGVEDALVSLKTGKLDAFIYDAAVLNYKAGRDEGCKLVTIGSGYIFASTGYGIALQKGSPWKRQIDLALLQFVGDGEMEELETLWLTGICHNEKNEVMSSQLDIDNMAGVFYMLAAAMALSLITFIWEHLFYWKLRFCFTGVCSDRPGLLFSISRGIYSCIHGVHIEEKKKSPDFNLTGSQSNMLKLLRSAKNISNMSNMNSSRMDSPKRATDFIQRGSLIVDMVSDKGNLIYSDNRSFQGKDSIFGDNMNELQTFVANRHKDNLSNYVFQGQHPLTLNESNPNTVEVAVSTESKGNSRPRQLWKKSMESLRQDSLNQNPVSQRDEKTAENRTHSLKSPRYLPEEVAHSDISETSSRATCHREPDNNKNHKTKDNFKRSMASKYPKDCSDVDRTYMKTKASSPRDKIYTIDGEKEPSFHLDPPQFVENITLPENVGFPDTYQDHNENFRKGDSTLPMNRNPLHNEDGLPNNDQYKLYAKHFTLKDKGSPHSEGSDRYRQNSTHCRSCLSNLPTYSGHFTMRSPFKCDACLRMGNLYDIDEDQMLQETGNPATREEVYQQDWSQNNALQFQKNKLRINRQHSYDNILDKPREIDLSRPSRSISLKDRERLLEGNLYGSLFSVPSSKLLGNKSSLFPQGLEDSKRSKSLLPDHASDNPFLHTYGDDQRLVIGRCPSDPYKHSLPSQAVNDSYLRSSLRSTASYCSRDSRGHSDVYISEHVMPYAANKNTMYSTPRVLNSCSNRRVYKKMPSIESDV
Sequence of NMDA receptor (NR), channel binding site labeled with [^3H]MK-801 (Q00960 27-1482, other chains not shown): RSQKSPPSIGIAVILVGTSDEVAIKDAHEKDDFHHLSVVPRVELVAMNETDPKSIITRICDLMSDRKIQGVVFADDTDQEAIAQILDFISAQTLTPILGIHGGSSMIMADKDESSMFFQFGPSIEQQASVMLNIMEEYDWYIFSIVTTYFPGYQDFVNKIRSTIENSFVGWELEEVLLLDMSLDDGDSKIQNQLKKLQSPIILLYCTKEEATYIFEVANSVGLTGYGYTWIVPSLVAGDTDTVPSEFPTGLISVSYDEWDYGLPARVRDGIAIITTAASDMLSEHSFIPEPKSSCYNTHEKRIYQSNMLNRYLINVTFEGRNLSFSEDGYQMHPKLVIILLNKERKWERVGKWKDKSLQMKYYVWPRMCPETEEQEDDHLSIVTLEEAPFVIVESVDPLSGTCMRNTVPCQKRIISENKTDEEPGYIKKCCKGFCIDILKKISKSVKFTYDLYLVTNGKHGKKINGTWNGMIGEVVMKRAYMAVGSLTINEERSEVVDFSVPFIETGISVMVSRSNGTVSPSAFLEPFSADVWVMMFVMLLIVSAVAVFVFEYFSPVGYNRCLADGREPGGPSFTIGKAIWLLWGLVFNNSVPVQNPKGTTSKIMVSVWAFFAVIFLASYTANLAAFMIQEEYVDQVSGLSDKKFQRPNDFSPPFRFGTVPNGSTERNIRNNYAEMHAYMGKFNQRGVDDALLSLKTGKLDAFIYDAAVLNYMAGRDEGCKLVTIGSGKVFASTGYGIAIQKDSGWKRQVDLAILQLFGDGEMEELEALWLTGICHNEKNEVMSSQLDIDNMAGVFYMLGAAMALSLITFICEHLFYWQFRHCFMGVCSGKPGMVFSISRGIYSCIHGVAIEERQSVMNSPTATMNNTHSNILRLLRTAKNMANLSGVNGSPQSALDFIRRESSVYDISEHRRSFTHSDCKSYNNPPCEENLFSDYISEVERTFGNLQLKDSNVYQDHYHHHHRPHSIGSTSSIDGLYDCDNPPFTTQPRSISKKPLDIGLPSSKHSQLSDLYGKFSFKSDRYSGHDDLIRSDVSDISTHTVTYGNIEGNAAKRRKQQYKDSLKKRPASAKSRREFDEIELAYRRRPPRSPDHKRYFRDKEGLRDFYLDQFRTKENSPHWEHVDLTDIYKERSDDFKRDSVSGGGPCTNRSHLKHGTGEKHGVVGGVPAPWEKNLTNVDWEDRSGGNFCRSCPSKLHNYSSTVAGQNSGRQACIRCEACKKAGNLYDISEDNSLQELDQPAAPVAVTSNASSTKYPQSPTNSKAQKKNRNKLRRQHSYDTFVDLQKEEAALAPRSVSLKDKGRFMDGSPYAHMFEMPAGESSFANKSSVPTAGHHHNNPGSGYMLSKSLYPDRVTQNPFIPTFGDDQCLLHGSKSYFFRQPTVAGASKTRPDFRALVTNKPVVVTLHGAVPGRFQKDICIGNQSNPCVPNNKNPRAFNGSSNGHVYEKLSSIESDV

[3] = target: NMDA receptor, [^3H]MK-801 binding; conditions: read-out: IC50, inhibition of [^3H]MK-801 binding to rat brain membranes; 5, 4 and 3 methylene groups between the oxygens; cited from earlier work
[4] = target: T1, NMDA receptor (NR), [^3H]ifenprodil binding site; experiment: biochemical
NRs in native membranes = conditions: native membranes from rat frontoparietal cortex and hippocampus; cited from earlier work
[5] = read-out: [^3H]MK-801 IC50 ± SD (n), 30 µM spm
[6] = [^3H]MK-801 IC50 ± SD (n), 30 µM spm

T1 sequence (Q00960 27-1482, other chains not shown): as above

Compound: 1,5-Bis(1-amidino-3-methoxyphenylamino)pentane dihydrochloride [compound 9]
- IC50 [1]: 4.54 µM

Compound: 1,5-Bis[(1-amidinophenyl)N-methylamino]-3-oxapentane [compound 11]
- IC50 [1]: 21.9 ± 5.2 µM
- [^3H]MK-801 Ratio IC50 (30 µM spm)/IC50 (no spm) [2]: 15.2 ± 2.2 (3)
- IC50 [2, 5]: 12.5 ± 1.8 µM

Compound: N=C(N)NCCCCNC(=N)N [Arcaine, reference compound]
- [^3H]MK-801 Ratio IC50 (30 µM spm)/IC50 (no spm) [2]: 33.6 (2)

Compound: N=C(N)c1ccc(OCCCCCOc2ccc(C(=N)N)cc2)cc1 [compound 1, Pentamidine, reference compound]
- IC50 [3]: 2.59 µM
- IC50 [4]: 32.5 µM
- IC50 [2, 6]: 24.9 ± 5.7 µM
- [^3H]MK-801 Ratio IC50 (30 µM spm)/IC50 (no spm) [2]: 9.1 ± 2.5 (7)

Compound: N=C(N)c1ccc(SCCOCCSc2ccc(C(=N)N)cc2)cc1 [compound 5]
- IC50 [2, 6]: 23.8 ± 2.7 µM
- [^3H]MK-801 Ratio IC50 (30 µM spm)/IC50 (no spm) [2]: 20.2 ± 6.1 (3)

Compound: N=C(N)c1ccc(N2CCN(c3ccc(C(=N)N)cc3)CC2)cc1 [compound 16]
- [^3H]MK-801 Ratio IC50 (30 µM spm)/IC50 (no spm) [2]: 26.2 (2)

Compound: N=C(NC1CC1)c1ccc(N2CCN(c3ccc(C(=N)NC4CC4)cc3)CC2)cc1 [compound 18]
- [^3H]MK-801 Ratio IC50 (30 µM spm)/IC50 (no spm) [2]: 21.8 (2)

Compound: CCCNC(=N)c1ccc(N2CCN(c3ccc(C(=N)NCCC)cc3)CC2)cc1 [compound 19]
- [^3H]MK-801 Ratio IC50 (30 µM spm)/IC50 (no spm) [2]: 21.8 (2)

Compound: CC(C)(C)/N=C(\N)c1ccc(N2CCCN(c3ccc(/C(N)=N/C(C)(C)C)cc3)CC2)cc1 [compound 27]
- [^3H]MK-801 Ratio IC50 (30 µM spm)/IC50 (no spm) [2]: 16.8 (2)

Compound: N=C(NCCCO)c1ccc(N2CCCN(c3ccc(/C(N)=N/CCCO)cc3)CC2)cc1 [compound 31]
- [^3H]MK-801 Ratio IC50 (30 µM spm)/IC50 (no spm) [2]: 9.72 (2)

Compound: c1cc(N2CCCN(c3ccc(C4=NCCN4)cc3)CC2)ccc1C1=NCCN1 [compound 32]
- [^3H]MK-801 Ratio IC50 (30 µM spm)/IC50 (no spm) [2]: 30.1 (2)

Compound: CN(CCNc1ccc(C(=N)N)cc1)c1ccc(C(=N)N)cc1 [compound 35]
- [^3H]MK-801 Ratio IC50 (30 µM spm)/IC50 (no spm) [2]: 30.2 (2)

Compound: CN(CCN(C)c1ccc(C(=N)N)cc1)c1ccc(C(=N)N)cc1 [compound 37]
- [^3H]MK-801 Ratio IC50 (30 µM spm)/IC50 (no spm) [2]: 20.9 (2)

Compound: CCN(CCN(CC)c1ccc(C(=N)N)cc1)c1ccc(C(=N)N)cc1 [compound 38]
- [^3H]MK-801 Ratio IC50 (30 µM spm)/IC50 (no spm) [2]: 11.8 (2)

Compound: N=C(N)c1ccc(NCCCNc2ccc(C(=N)N)cc2)cc1 [compound 39]
- [^3H]MK-801 Ratio IC50 (30 µM spm)/IC50 (no spm) [2]: 17.0 (2)

Compound: N=C(N)c1ccc(NCCCCNc2ccc(C(=N)N)cc2)cc1 [compound 41]
- [^3H]MK-801 Ratio IC50 (30 µM spm)/IC50 (no spm) [2]: 17.2 (2)

Compound: N=C(N)c1ccc(NCCCCCCNc2ccc(C(=N)N)cc2)cc1 [compound 42]
- [^3H]MK-801 Ratio IC50 (30 µM spm)/IC50 (no spm) [2]: 5.26 (2)

Compound: N=C(N)c1ccc(NCCCCCCCNc2ccc(C(=N)N)cc2)cc1 [compound 43, 1,7-Bis[(1-amidinophenyl)amino]heptane dihydrochloride]
- [^3H]MK-801 Ratio IC50 (30 µM spm)/IC50 (no spm) [2]: 5.37 (2)

Compound: N=C(N)c1ccc(NCCCCCCCCNc2ccc(C(=N)N)cc2)cc1 [compound 44]
- [^3H]MK-801 Ratio IC50 (30 µM spm)/IC50 (no spm) [2]: 4.37 (2)

Compound: N=C(N)c1ccc(NC(=O)CCCC(=O)Nc2ccc(C(=N)N)cc2)cc1 [compound 45]
- IC50 [4]: 65.6 µM
- Fold weaker than pentamidine ([2]; no spermine): 100 fold

Compound: N=C(N)c1ccc(NC(=O)CCCCC(=O)Nc2ccc(C(=N)N)cc2)cc1 [compound 46]
- [^3H]MK-801 Ratio IC50 (30 µM spm)/IC50 (no spm) [2]: 3.46 (2)

Compound: N=C(N)c1ccc(C(=O)NCCCCCCNC(=O)c2ccc(C(=N)N)cc2)cc1 [compound 55]
- [^3H]MK-801 Ratio IC50 (30 µM spm)/IC50 (no spm) [2]: 4.59 (2)

Compound: N=C(N)c1ccc(OCc2ccccc2COc2ccc(C(=N)N)cc2)cc1 [compound 57]
- IC50 [4]: 2.05 µM

Compound: N=C(N)c1ccc(OCc2ccc(COc3ccc(C(=N)N)cc3)cc2)cc1 [compound 59]
- IC50 [4]: 16.8 µM

Compound: N=C(N)c1ccc(OC(=O)c2ccc(C(=O)Oc3ccc(C(=N)N)cc3)cc2)cc1 [compound 60]
- IC50 [4]: 38.6 µM
- [^3H]MK-801 Ratio IC50 (30 µM spm)/IC50 (no spm) [2]: 3.98 (2)

Compound: N=C(N)c1ccc(NC(=O)c2cccc(C(=O)Nc3ccc(C(=N)N)cc3)c2)cc1 [compound 61]
- [^3H]MK-801 Ratio IC50 (30 µM spm)/IC50 (no spm) [2]: 0.97 (2)

Compound: N=C(N)c1ccc(NC(=O)c2ccc(C(=O)Nc3ccc(C(=N)N)cc3)cc2)cc1 [compound 62]
- [^3H]MK-801 Ratio IC50 (30 µM spm)/IC50 (no spm) [2]: 0.96 (2)

Compound: N=C(N)c1ccc(NC(=O)c2cccc(C(=O)Nc3ccc(C(=N)N)cc3)n2)cc1 [compound 65]
- [^3H]MK-801 Ratio IC50 (30 µM spm)/IC50 (no spm) [2]: 1.22 (2)

Compound: N=C(N)c1ccc(C(=O)Nc2cccc(NC(=O)c3ccc(C(=N)N)cc3)n2)cc1 [compound 67]
- [^3H]MK-801 Ratio IC50 (30 µM spm)/IC50 (no spm) [2]: 1.85 (2)

Compound: CC/N=C(\N)c1ccc(-c2ccc(-c3ccc(/C(N)=N/CC)cc3)o2)cc1 [compound 70]
- [^3H]MK-801 Ratio IC50 (30 µM spm)/IC50 (no spm) [2]: 2.56 (2)

Compound: N=C(N)c1ccc(-c2ccc(-c3ccc(C(=N)N)s3)s2)s1 [compound 71, 5,5″-Diamidino-2,2′:5′,2″-terthiophene dihydrochloride]
- [^3H]MK-801 Ratio IC50 (30 µM spm)/IC50 (no spm) [2]: 1.50 (2)

Compound: N=C(N)c1ccc(-c2ccc(-c3ccc(C(=N)N)cc3)c(F)c2)cc1 [compound 73]
- [^3H]MK-801 Ratio IC50 (30 µM spm)/IC50 (no spm) [2]: 4.63 (2)

Compound: N=C(N)c1ccc(-c2ccc(-c3nc4ccc(C(=N)N)cc4[nH]3)s2)cc1 [compound 74]
- [^3H]MK-801 Ratio IC50 (30 µM spm)/IC50 (no spm) [2]: 4.14 (2)

Compound: N=C(N)c1ccc(-c2ccc(-c3ccc(-c4ccc(C(=N)N)o4)s3)s2)o1 [compound 75]
- [^3H]MK-801 Ratio IC50 (30 µM spm)/IC50 (no spm) [2]: 4.26 (2)

Compound: CC(C(O)c1ccc(O)cc1)N1CCC(Cc2ccccc2)CC1 (stereo not drawn) [ifenprodil]
- Share of NRs blocked with high affinity (NRs in native membranes): 23%

Compound: N,N-Bis[2-(1-amidino-3-methoxyphenoxy)ethyl]-4-methylbenzenesulfonamide dihydrochloride [compound 15]
- IC50 [1]: 0.84 µM
- IC50 [2, 5]: 28.7 ± 4.4 µM
